# Measured values published in US10227344B2, “CK2 inhibitors, compositions and methods thereof” (Polaris Pharmaceuticals, Inc., priority 2016, dated 2019).
# Key:
# Format in all cases: cell-based
# K562 = assay: Cancer cell panel, cell viability (resazurin): Leukemia, K562; conditions: 72 hours, labelled drug combined with Example 3
# ZR-75-1 = assay: Cancer cell panel, cell viability (resazurin): Breast, ZR-75-1; conditions: ZR-75-1 (Breast), 72 hours; labelled drug combined with Example 3
# Protocol: (§1) Cells were plated in 96-well plates and treated for 72 hours with a serially diluted CK2 inhibitor or anti-cancer drug or their combination. The suspension cell lines were treated right after plating, while the adherent cells were allowed to attach overnight prior to the start of the treatment.
# (§2) Cell viability was determined by adding resazurin to cell cultures and measuring fluorescence with a plate reader. Relative cell viability was calculated by dividing the cell viability signal from a test sample by that of a non-treated control. […] Bliss Independence and Highest Single Agent models were used to determine if there is synergy, additivity or antagonism between the CK2 inhibitor and an anti-cancer drug.
# Mia-Paca-2 = assay: Cancer cell panel, cell viability (resazurin): Pancreatic, Mia-Paca-2; conditions: Mia-Paca-2 (Pancreatic), 72 hours; labelled drug combined with Example 3
# Protocol: as §1, §2
# ACHN = assay: Cancer cell panel, cell viability (resazurin): Renal, ACHN; conditions: 72 hours, labelled drug combined with Example 3
# Panc-1 = assay: Cancer cell panel, cell viability (resazurin): Pancreatic, Panc-1; conditions: Panc-1 (Pancreatic), 72 hours; labelled drug combined with Example 3
# Protocol: as §1, §2
# H460 = assay: Cancer cell panel, cell viability (resazurin): NSCLC, H460; conditions: 72 hours, labelled drug combined with Example 3
# SkBr-3 = assay: Cancer cell panel, cell viability (resazurin): Breast, SkBr-3; conditions: SkBr-3 (Breast), 72 hours; labelled drug combined with Example 3
# Protocol: as §1, §2
# H1299 = assay: Cancer cell panel, cell viability (resazurin): NSCLC, H1299; conditions: 72 hours, labelled drug combined with Example 3
# Protocol: as §1, §2
# OVCAR-3 = assay: Cancer cell panel, cell viability (resazurin): Ovarian, OVCAR-3; conditions: OVCAR-3 (Ovarian), 72 hours; labelled drug combined with Example 3
# Protocol: as §1, §2
# MOLT4 = assay: Cancer cell panel, cell viability (resazurin): Leukemia, MOLT4; conditions: 72 hours, labelled drug combined with Example 3
# Protocol: as §1, §2
# A2780 = assay: Cancer cell panel, cell viability (resazurin): Ovarian, A2780; conditions: 72 hours, labelled drug combined with Example 3
# BT-20 = assay: Cancer cell panel, cell viability (resazurin): Breast, BT-20; conditions: BT-20 (Breast), 72 hours; labelled drug combined with Example 3
# MDA-MB-231 = assay: Cancer cell panel, cell viability (resazurin): Breast, MDA-MB-231; conditions: MDA-MB-231 (Breast), 72 hours; labelled drug combined with Example 3
# Protocol: as §1, §2
# U266 = assay: Cancer cell panel, cell viability (resazurin): multiple myeloma, U266; conditions: 72 hours, labelled drug combined with Example 3
# Protocol: as §1, §2
# A549 = assay: Cancer cell panel, cell viability (resazurin): NSCLC, A549; conditions: 72 hours, labelled drug combined with Example 3
# WM-115 = assay: Cancer cell panel, cell viability (resazurin): Melanoma, WM-115; conditions: WM-115 (Melanoma), 72 hours; labelled drug combined with Example 3
# Protocol: as §1, §2
# A375 = assay: Cancer cell panel, cell viability (resazurin): Melanoma, A375; conditions: 72 hours, labelled drug combined with Example 3
# Protocol: as §1, §2
# SK-MEL-24 = assay: Cancer cell panel, cell viability (resazurin): Melanoma, SK-MEL-24; conditions: SK-MEL-24 (Melanoma), 72 hours; labelled drug combined with Example 3
# MDA-MB-157 = assay: Cancer cell panel, cell viability (resazurin): Breast, MDA-MB-157; conditions: MDA-MB-157 (Breast), 72 hours; labelled drug combined with Example 3
# RPMI8226 = assay: Cancer cell panel, cell viability (resazurin): multiple myeloma, RPMI8226; conditions: 72 hours, labelled drug combined with Example 3
# MCF7 = assay: Cancer cell panel, cell viability (resazurin): Breast, MCF7; conditions: 72 hours, labelled drug combined with Example 3
# Ramos = assay: Cancer cell panel, cell viability (resazurin): Burkitt's Lymphoma, Ramos; conditions: 72 hours, labelled drug combined with Example 3
# Protocol: as §1, §2
# H1975 = assay: Cancer cell panel, cell viability (resazurin): NSCLC, H1975; conditions: 72 hours, labelled drug combined with Example 3
# DLD-1 = assay: Cancer cell panel, cell viability (resazurin): Colon, DLD-1; conditions: DLD-1 (Colon), 72 hours; labelled drug combined with Example 3
# HL60 = assay: Cancer cell panel, cell viability (resazurin): Leukemia, HL60; conditions: 72 hours, labelled drug combined with Example 3
# Protocol: as §1, §2
# Caki-1 = assay: Cancer cell panel, cell viability (resazurin): Renal, Caki-1; conditions: Caki-1 (Renal), 72 hours; labelled drug combined with Example 3
# Protocol: as §1, §2
# BxPC3 = assay: Cancer cell panel, cell viability (resazurin): Pancreatic, BxPC3; conditions: 72 hours, labelled drug combined with Example 3
# EOL-1 = assay: Cancer cell panel, cell viability (resazurin): Leukemia, EOL-1; conditions: EOL-1 (Leukemia), 72 hours; labelled drug combined with Example 3
# H23 = assay: Cancer cell panel, cell viability (resazurin): NSCLC, H23; conditions: 72 hours, labelled drug combined with Example 3
# Protocol: as §1, §2
# LoVo = assay: Cancer cell panel, cell viability (resazurin): Colon, LoVo; conditions: 72 hours, labelled drug combined with Example 3
# HT29 = assay: Cancer cell panel, cell viability (resazurin): Colon, HT29; conditions: 72 hours, labelled drug combined with Example 3
# Protocol: as §1, §2
# SK-MEL-3 = assay: Cancer cell panel, cell viability (resazurin): Melanoma, SK-MEL-3; conditions: SK-MEL-3 (Melanoma), 72 hours; labelled drug combined with Example 3
# Caov-3 = assay: Cancer cell panel, cell viability (resazurin): Ovarian, Caov-3; conditions: Caov-3 (Ovarian), 72 hours; labelled drug combined with Example 3
# T47D = assay: Cancer cell panel, cell viability (resazurin): Breast, T47D; conditions: 72 hours, labelled drug combined with Example 3
# Colo205 = assay: Cancer cell panel, cell viability (resazurin): Colon, Colo205; conditions: 72 hours, labelled drug combined with Example 3
# H2122 = assay: Cancer cell panel, cell viability (resazurin): NSCLC, H2122; conditions: 72 hours, labelled drug combined with Example 3
# Raji = assay: Cancer cell panel, cell viability (resazurin): Burkitt's Lymphoma, Raji; conditions: 72 hours, labelled drug combined with Example 3
# SKOV-3 = assay: Cancer cell panel, cell viability (resazurin): Ovarian, SKOV-3; conditions: SKOV-3 (Ovarian), 72 hours; labelled drug combined with Example 3
compound,measurement,setting,value
"CCN(CC)CCNC(=O)c1c(C)[nH]c(/C=C2\C(=O)Nc3ccc(F)cc32)c1C [Sunitinib, sunitinib]","synergy, additivity or antagonism of the combination of Example 3 with the anti-cancer drug",K562,+ + + (Synergy relative to each agent alone (CI = 0.4-0.74 by Bliss Independence Model))
same,"synergy, additivity or antagonism of the combination of Example 3 with the anti-cancer drug",ZR-75-1,+ + (Slight synergy relative to each agent alone (CI = 0.75-0.9 by Bliss Independence Model))
same,"synergy, additivity or antagonism of the combination of Example 3 with the anti-cancer drug",Mia-Paca-2,+ + (Slight synergy relative to each agent alone (CI = 0.75-0.9 by Bliss Independence Model))
same,"synergy, additivity or antagonism of the combination of Example 3 with the anti-cancer drug",ACHN,+ (Additive relative to each agent alone (CI = 0.9-1 by Bliss Independence Model and <0.9 by Highest Single Agent Model))
same,"synergy, additivity or antagonism of the combination of Example 3 with the anti-cancer drug",Panc-1,+ + (Slight synergy relative to each agent alone (CI = 0.75-0.9 by Bliss Independence Model))
same,"synergy, additivity or antagonism of the combination of Example 3 with the anti-cancer drug",H460,+ + (Slight synergy relative to each agent alone (CI = 0.75-0.9 by Bliss Independence Model))
same,"synergy, additivity or antagonism of the combination of Example 3 with the anti-cancer drug",SkBr-3,+ + (Slight synergy relative to each agent alone (CI = 0.75-0.9 by Bliss Independence Model))
same,"synergy, additivity or antagonism of the combination of Example 3 with the anti-cancer drug",H1299,+ (Additive relative to each agent alone (CI = 0.9-1 by Bliss Independence Model and <0.9 by Highest Single Agent Model))
same,"synergy, additivity or antagonism of the combination of Example 3 with the anti-cancer drug",OVCAR-3,− − (Antagonistic relative to each agent alone (CI = 1.2-1.49 by Highest Single Agent Model))
same,"synergy, additivity or antagonism of the combination of Example 3 with the anti-cancer drug",MOLT4,+ (Additive relative to each agent alone (CI = 0.9-1 by Bliss Independence Model and <0.9 by Highest Single Agent Model))
same,"synergy, additivity or antagonism of the combination of Example 3 with the anti-cancer drug",A2780,+ + + (Synergy relative to each agent alone (CI = 0.4-0.74 by Bliss Independence Model))
same,"synergy, additivity or antagonism of the combination of Example 3 with the anti-cancer drug",BT-20,+ + (Slight synergy relative to each agent alone (CI = 0.75-0.9 by Bliss Independence Model))
same,"synergy, additivity or antagonism of the combination of Example 3 with the anti-cancer drug",MDA-MB-231,+ + (Slight synergy relative to each agent alone (CI = 0.75-0.9 by Bliss Independence Model))
same,"synergy, additivity or antagonism of the combination of Example 3 with the anti-cancer drug",U266,+ (Additive relative to each agent alone (CI = 0.9-1 by Bliss Independence Model and <0.9 by Highest Single Agent Model))
same,"synergy, additivity or antagonism of the combination of Example 3 with the anti-cancer drug",A549,+ + + (Synergy relative to each agent alone (CI = 0.4-0.74 by Bliss Independence Model))
same,"synergy, additivity or antagonism of the combination of Example 3 with the anti-cancer drug",WM-115,+ + (Slight synergy relative to each agent alone (CI = 0.75-0.9 by Bliss Independence Model))
same,"synergy, additivity or antagonism of the combination of Example 3 with the anti-cancer drug",A375,+ + (Slight synergy relative to each agent alone (CI = 0.75-0.9 by Bliss Independence Model))
same,"synergy, additivity or antagonism of the combination of Example 3 with the anti-cancer drug",SK-MEL-24,+ + + (Synergy relative to each agent alone (CI = 0.4-0.74 by Bliss Independence Model))
same,"synergy, additivity or antagonism of the combination of Example 3 with the anti-cancer drug",MDA-MB-157,+ + + (Synergy relative to each agent alone (CI = 0.4-0.74 by Bliss Independence Model))
same,"synergy, additivity or antagonism of the combination of Example 3 with the anti-cancer drug",RPMI8226,+ + + + (Strong synergy relative to each agent alone (CI < 0.4 by Bliss Independence Model))
same,"synergy, additivity or antagonism of the combination of Example 3 with the anti-cancer drug",MCF7,+ (Additive relative to each agent alone (CI = 0.9-1 by Bliss Independence Model and <0.9 by Highest Single Agent Model))
same,"synergy, additivity or antagonism of the combination of Example 3 with the anti-cancer drug",Ramos,+ + (Slight synergy relative to each agent alone (CI = 0.75-0.9 by Bliss Independence Model))
same,"synergy, additivity or antagonism of the combination of Example 3 with the anti-cancer drug",H1975,+ + (Slight synergy relative to each agent alone (CI = 0.75-0.9 by Bliss Independence Model))
same,"synergy, additivity or antagonism of the combination of Example 3 with the anti-cancer drug",DLD-1,+ + (Slight synergy relative to each agent alone (CI = 0.75-0.9 by Bliss Independence Model))
same,"synergy, additivity or antagonism of the combination of Example 3 with the anti-cancer drug",HL60,+ + (Slight synergy relative to each agent alone (CI = 0.75-0.9 by Bliss Independence Model))
same,"synergy, additivity or antagonism of the combination of Example 3 with the anti-cancer drug",Caki-1,+ (Additive relative to each agent alone (CI = 0.9-1 by Bliss Independence Model and <0.9 by Highest Single Agent Model))
same,"synergy, additivity or antagonism of the combination of Example 3 with the anti-cancer drug",BxPC3,+ + + (Synergy relative to each agent alone (CI = 0.4-0.74 by Bliss Independence Model))
same,"synergy, additivity or antagonism of the combination of Example 3 with the anti-cancer drug",EOL-1,+ + (Slight synergy relative to each agent alone (CI = 0.75-0.9 by Bliss Independence Model))
same,"synergy, additivity or antagonism of the combination of Example 3 with the anti-cancer drug",H23,+ + + (Synergy relative to each agent alone (CI = 0.4-0.74 by Bliss Independence Model))
same,"synergy, additivity or antagonism of the combination of Example 3 with the anti-cancer drug",LoVo,+ (Additive relative to each agent alone (CI = 0.9-1 by Bliss Independence Model and <0.9 by Highest Single Agent Model))
same,"synergy, additivity or antagonism of the combination of Example 3 with the anti-cancer drug",HT29,+ (Additive relative to each agent alone (CI = 0.9-1 by Bliss Independence Model and <0.9 by Highest Single Agent Model))
same,"synergy, additivity or antagonism of the combination of Example 3 with the anti-cancer drug",SK-MEL-3,+ (Additive relative to each agent alone (CI = 0.9-1 by Bliss Independence Model and <0.9 by Highest Single Agent Model))
same,"synergy, additivity or antagonism of the combination of Example 3 with the anti-cancer drug",Caov-3,+ (Additive relative to each agent alone (CI = 0.9-1 by Bliss Independence Model and <0.9 by Highest Single Agent Model))
same,"synergy, additivity or antagonism of the combination of Example 3 with the anti-cancer drug",T47D,+ (Additive relative to each agent alone (CI = 0.9-1 by Bliss Independence Model and <0.9 by Highest Single Agent Model))
same,"synergy, additivity or antagonism of the combination of Example 3 with the anti-cancer drug",Colo205,+ + + + (Strong synergy relative to each agent alone (CI < 0.4 by Bliss Independence Model))
same,"synergy, additivity or antagonism of the combination of Example 3 with the anti-cancer drug",H2122,+ + (Slight synergy relative to each agent alone (CI = 0.75-0.9 by Bliss Independence Model))
same,"synergy, additivity or antagonism of the combination of Example 3 with the anti-cancer drug",Raji,+ + (Slight synergy relative to each agent alone (CI = 0.75-0.9 by Bliss Independence Model))
same,"synergy, additivity or antagonism of the combination of Example 3 with the anti-cancer drug",SKOV-3,+ (Additive relative to each agent alone (CI = 0.9-1 by Bliss Independence Model and <0.9 by Highest Single Agent Model))
